Data set [1] has as its system cotton plants (Delta Pine variety). The data set can be described thus: Defoliation of young cotton plants under greenhouse conditions, Example A. Conditions: 12 days after application, day/night 23/16° C., as a percentage of the control. It counts as in vivo. The procedure:
Young cotton plants (Delta Pine variety, development stage: 5-6 developed foliage leaves) were cultivated under greenhouse conditions (day/night temperature 23/16° C., relative humidity 50-70%) and the foliage was treated, until dripping wet, with aqueous formulations of the stated active ingredients. The converted amount of water was 1,000 l/ha. 12 days after application of the active ingredient, the number of dropped leaves and the degree of defoliation as a percentage of the control were stated. No dropping of leaves occurred in the untreated control plants.

Data set [2] shares this test system. The data set can be described thus: Defoliation of young cotton plants under greenhouse conditions, Example C. The class given is in vivo. Conditions: foliar treatment of young cotton plants, 3 days after application, day/night 28/20° C., percentage of the control. As for the experimental part:
Young cotton plants (Delta Pine variety, stage of development: 5-6 developed foliage leaves) were cultivated under green house conditions (day/night temperature 28/20° C., relative humidity […]) and the foliage was treated, until dripping wet, with aqueous formulations of the stated active ingredients. The converted amount of water was 1,000 l/ha. 3 days after application of the active ingredient, the number of dropped leaves and the degree of defoliation as a percentage of the control were stared. No dropping of leaves occurred in the untreated control plants.

Setting [3] is: converted application rate 0.125 kg/ha.
Where [4] appears, read: converted application rate 0.250 kg/ha.

Consider ten compounds from patent USRE37664E1, “Use of derivatives of N-phenl-3,4,5,6-tetrahydrophthalimide for the desiccation and abscission of plant organs” (BASF Aktiengessellschaft, priority 1989, dated 2002).

The structures appear in SMILES notation. Where a name gives a salt, the structure may show the parent alone.

Regarding `CC1CSC(c2cc(N3C(=O)C4=C(CCCC4)C3=O)ccc2Cl)S1` (centres unmarked) [Compound 2.5], the “% defoliation” value was found to be 50% in data set [1] (0.062 kg/ha); 70% in data set [1] (0.125 kg/ha); 97% in data set [1] (0.250 kg/ha); 97% in data set [2] (setting [3]); 100% in data set [2] (setting [4]).

For `COC(=O)C(C)=Cc1cc(N2C(=O)C3=C(CCCC3)C2=O)ccc1Cl` [Compound 1.26], the entries for the “% defoliation” value in data set [1] (0.062 kg/ha), in data set [1] (0.125 kg/ha) and in data set [1] (0.250 kg/ha) were 67%, 79% and 89%, respectively.

Consider `O=C1C2=C(CCCC2)C(=O)N1c1cc(OCC2CCCOC2)c(Cl)cc1F` (centres unmarked) [Compound 4.1], for which the “% defoliation” value in data set [1] (0.062 kg/ha) is listed as 83%.

Regarding `c1cc[n+]2c(c1)-c1cccc[n+]1CC2` [Comparative agent II, 6,7-dihydropyridol(1,2-α:2′,1′-c)pyridilium as the dibromide monohydrate salt, reference compound], the “% defoliation” value stood at 11% in data set [1] (0.250 kg/ha) and 27% in data set [1] (0.500 kg/ha).

For `CCOC(=O)C(Cl)=Cc1cc(N2C(=O)C3=C(CCCC3)C2=O)ccc1Cl` [Compound 1.17, N-[3-(1′-ethoxycarbonyl-1′-chloroethenyl)-4-chlorophenyl]-3,4,5,6-tetrahydrophthalimide], the “% defoliation” value amounted to 55% in data set [1] (0.062 kg/ha); 84% in data set [1] (0.125 kg/ha); 89% in data set [1] (0.250 kg/ha); 95% in data set [2] (setting [3]); 100% in data set [2] (setting [4]).

With `CC1CCCO1` (centres unmarked), the “% defoliation” value amounted to 48% in data set [2] (setting [3]) and 53% in data set [2] (setting [4]).

Compound `Cc1ncccc1C(=O)N(C)C` returned a melting point of 87 to 103 °C.

Regarding `COC(=O)C(Br)=Cc1cc(N2C(=O)C3=C(CCCC3)C2=O)ccc1Cl` [Compound 1.1], the “% defoliation” value was determined as 26% in data set [1] (0.062 kg/ha); 61% in data set [1] (0.125 kg/ha); 80% in data set [1] (0.250 kg/ha); 100% in data set [2] (setting [3]); 98% in data set [2] (setting [4]).

As for `O=C(Nc1ccccc1)Nc1cnns1` [Comparative agent I, N-phenyl-N′-(1,2,3-thiadiazol-5-yl)-urea, reference compound], the entries for the “% defoliation” value in data set [1] (0.062 kg/ha), in data set [1] (0.125 kg/ha) and in data set [1] (0.250 kg/ha) were 13%, 31% and 67%, respectively.

For the compound `COC(=O)C(C)ON=C(C#N)c1cc(N2C(=O)C3=C(CCCC3)C2=O)ccc1Cl` (centres unmarked) [Compound 7.27], the results for the “% defoliation” value in data set [2] (setting [3]) and in data set [2] (setting [4]) were 100% and 95%, respectively.

As a reminder, the melting point is the temperature, or range, at which the solid turns liquid.
